Among the data in patent US20140005163A1 (NOVARTIS AG, priority 2010, published 2014) are solubility and IC50 values, retold here.

One series is described as follows: Solubility at pH 6.8. In kind it is physicochemical. In a few lines: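 Following the procedure of Zhou et al. (2007), compound solubility was determined at pH 6.8.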
A further series has as its target T1, mTOR (Homo sapiens, UniProt P42345).
T1 construct: purchased Invitrogen Corporation (Carlsbad/CA, USA) PV4753
Kind of series: Biochemical assay for m-TOR by TR-FRET. The settings on record: 8 μM ATP, 400 nM GFP-4EBP1, 0.5 nM mTOR. In a few lines:
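Enzyme 0.5 nM, GFP-4EBP1 400 nM, ATP 8 μM (all final); 50 mM HEPES pH 7.5, 10 mM MnCl2, 1 mM DTT; rt. Detection: Tb-α-p4EBP1 [pT46] 0.5 nM in EDTA, TR-FRET, 15 min. Reference compound on every plate, 16-point duplicate dilutions.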
(In general: Time-resolved FRET reads energy transfer from a long-lived donor to a nearby acceptor.)

Series [1] has as its system S6 Ribosomal Protein phosphorylation Ser235/236 in TSC1 null mouse embryo fibroblast (MEF) cells. Kind of series: Reverse protein array assay, S6 Ribosomal Protein phosphorylation Ser235/236 in TSC1 null MEF cells. It is filed as cell-based. The settings on record: 1 h, pS6 ribosomal protein Ser235/236, 60 minutes incubation, read-out: p-S6 IC50. An outline of the steps:
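TSC1−/− MEFs, seeded and held ≥20 h at 37 °C/5% CO2, were exposed to 8-step serial compound dilutions (0.02% DMSO final; DMSO vehicle control) for 60 min at 37 °C. Cells were then lysed on ice for 10 min and lysates spotted onto reverse protein array chips.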

Series [2] relates to PKB Ser473 phosphorylation in Rat1-myr-HA-p110 alpha cells. Kind of series: Reverse protein array assay, PKB Ser473 phosphorylation in Rat1-myr-p110 alpha cells. In kind it is cell-based. Particulars: 0.5 h, pAkt Ser473, 30 minutes compound incubation, read-out: p-PKB IC50. An outline of the steps: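 Compound exposure lasted 30 min in Rat1 cells bearing membrane-targeted HA-p110 isoforms, using 8 serial concentrations. Arrayed lysates, each spotted at four dilutions, gave relative fluorescence signals for phospho-Ser473 PKB.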

Setting [3] is: pH 6.8, aqueous buffer, thermodynamic from solid, read-out: solubility.

Values after ≈ are worked out from the molar mass of the structure shown. Where two headings read alike, the source gives them in different places. Some results are limits rather than exact numbers.

As usually defined, the solubility is the dissolved amount per volume that the medium holds. The term IC50 denotes the midpoint of a concentration-inhibition curve.

T1 sequence (P42345 1360-2549 limits assumed): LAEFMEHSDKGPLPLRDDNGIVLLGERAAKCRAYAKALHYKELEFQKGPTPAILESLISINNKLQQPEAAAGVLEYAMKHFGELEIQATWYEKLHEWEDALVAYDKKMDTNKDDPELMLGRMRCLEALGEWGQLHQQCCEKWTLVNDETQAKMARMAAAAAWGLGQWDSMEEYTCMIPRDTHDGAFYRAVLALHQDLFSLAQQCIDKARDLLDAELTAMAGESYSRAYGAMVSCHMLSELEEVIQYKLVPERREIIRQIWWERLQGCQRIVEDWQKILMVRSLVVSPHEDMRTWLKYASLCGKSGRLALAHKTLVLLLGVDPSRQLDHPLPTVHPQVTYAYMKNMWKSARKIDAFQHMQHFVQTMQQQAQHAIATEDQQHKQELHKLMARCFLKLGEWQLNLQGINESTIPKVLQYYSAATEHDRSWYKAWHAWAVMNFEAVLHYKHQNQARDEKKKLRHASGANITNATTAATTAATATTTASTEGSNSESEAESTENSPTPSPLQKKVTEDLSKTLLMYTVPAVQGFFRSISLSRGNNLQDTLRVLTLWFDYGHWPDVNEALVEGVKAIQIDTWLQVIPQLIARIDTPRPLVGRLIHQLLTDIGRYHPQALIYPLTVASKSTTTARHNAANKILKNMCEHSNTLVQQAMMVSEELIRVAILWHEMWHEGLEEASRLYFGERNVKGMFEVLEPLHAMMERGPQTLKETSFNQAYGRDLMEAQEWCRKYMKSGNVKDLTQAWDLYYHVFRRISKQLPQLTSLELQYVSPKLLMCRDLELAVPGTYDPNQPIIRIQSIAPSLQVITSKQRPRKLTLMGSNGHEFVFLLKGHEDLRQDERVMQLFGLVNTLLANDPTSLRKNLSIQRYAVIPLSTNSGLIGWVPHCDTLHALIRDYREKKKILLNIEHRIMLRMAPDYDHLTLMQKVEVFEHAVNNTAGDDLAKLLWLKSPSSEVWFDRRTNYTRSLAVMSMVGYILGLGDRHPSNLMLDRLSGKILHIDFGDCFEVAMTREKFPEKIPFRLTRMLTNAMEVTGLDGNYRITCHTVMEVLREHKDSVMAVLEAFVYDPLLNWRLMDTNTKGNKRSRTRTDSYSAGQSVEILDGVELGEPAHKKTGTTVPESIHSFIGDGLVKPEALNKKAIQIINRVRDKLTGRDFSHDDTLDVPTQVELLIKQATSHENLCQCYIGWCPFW

In the case of `CCNc1cc(-c2ccc3ncc4c(c3c2)n(-c2c(C)nn(CC(=O)N(C)C)c2C)c(=O)n4C)cnc1C` [Example 87.5, 2-{4-[8-(5-Ethylamino-6-methyl-pyridin-3-yl)-3-methyl-2-oxo-2,3-dihydro-imidazo[4,5-c]quinolin-1-yl]-3,5-dimethyl-pyrazol-1-yl}-N,N-dimethyl-acetamide], the solubility in the series “Solubility at pH 6.8” (setting [3]) was above 513 µg/mL. The IC50 was 29 nM on mTOR, 180 nM in series [1] and 237 nM in series [2].
The corresponding values for `Cc1ncc(-c2ccc3ncc4c(c3c2)n(-c2cn(C)nc2C)c(=O)n4C)cc1OC(CF)CF` [Example 189, 1-(1,3-Dimethyl-1H-pyrazol-4-yl)-8-[5-(2-fluoro-1-fluoromethyl-ethoxy)-6-methyl-pyridin-3-yl]-3-methyl-1,3-dihydro-imidazo[4,5-c]quinolin-2-one] are 15 µg/mL (≈ 31.3 µM), 17 nM, 1 nM and below 5 nM.
The compound `CCOc1cc(-c2ccc3ncc4c(c3c2)n(-c2cn(C)nc2C)c(=O)n4C)ccc1OC` [Example 28.3, 1-(1,3-Dimethyl-1H-pyrazo1-4-yl)-8-(3-ethoxy-4-methoxy-phenyl)-3-methyl-1,3-dihydro-imidazo[4,5-c]quinolin-2-one] registered a solubility in “Solubility at pH 6.8” (pH 6.8) of 2 µg/mL (≈ 4.51 µM). For the same compound, the results for the IC50 (on mTOR; in series [1]; in series [2]) were 13 nM, 2 nM and 9 nM, respectively.
The like results for `Cc1nn(C)cc1-n1c(=O)n(C)c2cnc3ccc(-c4cccc(S(C)(=O)=O)c4)cc3c21` [Example 40, 1-(1,3-Dimethyl-1H-pyrazol-4-yl)-8-(3-methanesulfonyl-phenyl)-3-methyl-1,3-dihydro-imidazo[4,5-c]quinolin-2-one] were, in that order, 2 µg/mL (≈ 4.47 µM), 71 nM, 36 nM and 77 nM.
Turning to `Cc1nn(C)cc1-n1c(=O)n(C)c2cnc3ccc(-c4cnc(CO)c(OC(C)C)c4)cc3c21` [Example 190, 1-(1,3-Dimethyl-1H-pyrazol-4-yl)-8-(6-hydroxymethyl-5-isopropoxy-pyridin-3-yl)-3-methyl-1,3-dihydro-imidazo[4,5-c]quinolin-2-one], the solubility in “Solubility at pH 6.8” (setting [3]) was 5 µg/mL (≈ 10.9 µM). Moreover, the IC50 stood at 37 nM on mTOR, 2 nM in series [1] and 19 nM in series [2].
The like results for `CCn1cc(-n2c(=O)n(C)c3cnc4ccc(-c5ccc(OCCOC)c(OC)c5)cc4c32)c(C)n1` [Example 30.2, 1-(1-Ethyl-3-methyl-1H-pyrazol-4-yl)-8-[3-methoxy-4-(2-methoxy-ethoxy)-phenyl]-3-methyl-1,3-dihydro-imidazo[4,5-c]quinolin-2-one] were, in that order, 9 µg/mL (≈ 18.5 µM), 54 nM, 41 nM and 44 nM.
Regarding `Cc1nn(C)cc1-n1c(=O)n(C)c2cnc3ccc(-c4cccc(O)c4)cc3c21` [Example 32.1, 1-(1,3-Dimethyl-1H-pyrazol-4-yl)-8-(3-hydroxy-phenyl)-3-methyl-1,3-dihydro-imidazo[4,5-c]quinolin-2-one], the solubility in “Solubility at pH 6.8” (pH 6.8) was found to be 2 µg/mL (≈ 5.19 µM). Further, the results for the IC50 (on mTOR; in series [1]; in series [2]) were 28 nM, 11 nM and 85 nM, respectively.
For `CCn1cc(-n2c(=O)n(C)c3cnc4ccc(-c5cnc(N)c(COC)c5)cc4c32)c(C)n1` [Example 168.2, 8-(6-Amino-5-methoxymethyl-pyridin-3-yl)-1-(1-ethyl-3-methyl-1H-pyrazol-4-yl)-3-methyl-1,3-dihydro-imidazo[4,5-c]quinolin-2-one], in the series “Solubility at pH 6.8” (setting [3]), the solubility turned out to be 24 µg/mL (≈ 54.1 µM). Moreover, the values for the IC50 (at mTOR; in series [1]; in series [2]) were 41 nM, below 0.5 nM and 12 nM, respectively.
Regarding `COCc1ncc(-c2ccc3ncc4c(c3c2)n(-c2cn(C(C)C)nc2C)c(=O)n4C)cc1OC` [Example 195.2, 1-(1-Isopropyl-3-methyl-1H-pyrazol-4-yl)-8-(5-methoxy-6-methoxymethyl-pyridin-3-yl)-3-methyl-1,3-dihydro-imidazo[4,5-c]quinolin-2-one], the solubility in the series “Solubility at pH 6.8” (setting [3]) is above 473 µg/mL. Besides, the half-inhibitory concentration (IC50) at mTOR was found to be 87 nM; in series [1] it was 31 nM; in series [2], 48 nM.
The like results for `Cc1ncc(-c2ccc3ncc4c(c3c2)n(-c2cn(C)nc2C)c(=O)n4C)cc1N(C)C` [Example 164, 8-(5-Dimethylamino-6-methyl-pyridin-3-yl)-1-(1,3-dimethyl-1H-pyrazol-4-yl)-3-methyl-1,3-dihydro-imidazo[4,5-c]quinolin-2-one] were, in that order, 400 µg/mL (≈ 936 µM), below 3 nM, 1 nM and below 5 nM.
The like results for `Cc1nn(C)cc1-n1c(=O)n(C)c2cnc3ccc(-c4ccc(CO)nc4)cc3c21` [Example 16.2, 1-(1,3-Dimethyl-1H-pyrazol-4-yl)-8-(6-hydroxymethyl-pyridin-3-yl)-3-methyl-1,3-dihydro-imidazo[4,5-c]quinolin-2-one] were, in that order, 102 µg/mL (≈ 255 µM), 23 nM, 181 nM and 151 nM.
In the case of `CNc1ncc(-c2ccc3ncc4c(c3c2)n(-c2c(C)nn(C)c2C)c(=O)n4C)cc1F` [Example 141.1, 8-(5-Fluoro-6-methylamino-pyridin-3-yl)-3-methyl-1-(1,3,5-trimethyl-1H-pyrazol-4-yl)-1,3-dihydro-imidazo[4,5-c]quinolin-2-one], the solubility in “Solubility at pH 6.8” (setting [3]) is above 431 µg/mL. The IC50 was 447 nM on mTOR, 34 nM in series [1] and 150 nM in series [2].
